Patent US11820766B2, “Monoacylglycerol lipase modulators” (Janssen Pharmaceutica NV, priority 2018, dated 2023)

target: T1, human MGL from HeLa cells (Homo sapiens, UniProt Q99685); assay: In vitro MGL activity assay: [glycerol-1,3-3H]-oleyl glycerol cleavage by MGL from HeLa cells; type: biochemical; details: 300 nM [Glycerol-1,3-3H]-oleyl glycerol, one hour
T1 construct: combining endogenously expressed MGL from HeLa cells with test compounds; endogenous in cells; host or cells: HeLa cells / cell homogenates
T1 sequence (Q99685 1-303): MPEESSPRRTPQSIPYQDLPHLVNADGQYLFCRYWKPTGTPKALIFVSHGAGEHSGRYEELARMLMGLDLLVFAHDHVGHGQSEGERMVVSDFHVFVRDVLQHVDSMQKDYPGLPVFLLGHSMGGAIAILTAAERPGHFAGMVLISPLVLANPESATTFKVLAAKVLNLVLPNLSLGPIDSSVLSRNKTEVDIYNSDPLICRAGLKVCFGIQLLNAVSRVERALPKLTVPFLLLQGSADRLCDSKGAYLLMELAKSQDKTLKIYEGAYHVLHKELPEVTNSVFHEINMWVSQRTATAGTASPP
Excerpt: MGL is the predominant hydrolase in HeLa cells/cell homogenates.

Row | Structure (SMILES) | IC50 [nM]
1 | C[C@H]1c2nn(C)c(-c3cc(F)c(F)c(F)c3)c2CCN1C(=O)c1n[nH]c2ccc(F)cc12 [Example 364, [(7S)-2,7-Dimethyl-3-(3,4,5-trifluorophenyl)-5,7-dihydro-4H-pyrazolo[3,4-c]pyridin-6-yl]-(5-fluoro-1H-indazol-3-yl)methanone] | 20.3
2 | Cc1cccc2c(C(=O)N3CCc4c(nn(C)c4-c4cc(F)c(F)c(F)c4)[C@@H]3C)cnn12 [Example 386, [(7S)-2,7-Dimethyl-3-(3,4,5-trifluorophenyl)-5,7-dihydro-4H-pyrazolo[3,4-c]pyridin-6-yl]-(7-methylpyrazolo[1,5-a]pyridin-3-yl)methanone] | 11.7
3 | Cc1ccc2cc(C(=O)N3CCc4c(nn(C)c4-c4cc(F)c(F)c(F)c4)[C@@H]3C)ccc2n1 [Example 548, [(7S)-2,7-Dimethyl-3-(3,4,5-trifluorophenyl)-5,7-dihydro-4H-pyrazolo[3,4-c]pyridin-6-yl]-(2-methyl-6-quinolyl)methanone] | 16.2
4 | C[C@H]1c2nn(C)c(-c3cc(F)c(F)c(F)c3)c2CCN1C(=O)c1cnn2c1NCCC2C(F)(F)F (stereo partly drawn) [Example 558, ((S)-2,7-Dimethyl-3-(3,4,5-trifluorophenyl)-4,5-dihydro-2H-pyrazolo[3,4-c]pyridin-6 (7H)-yl)(7-(trifluoromethyl)-4,5,6,7-tetrahydropyrazolo[1,5-a]pyrimidin-3-yl)methanone] | 1800
5 | C[C@H]1c2nn(C)c(-c3cc(F)c(F)c(F)c3)c2CCN1C(=O)c1nccc2ncncc12 [Example 484, [(7S)-2,7-Dimethyl-3-(3,4,5-trifluorophenyl)-5,7-dihydro-4H-pyrazolo[3,4-c]pyridin-6-yl]-pyrido[4,3-d]pyrimidin-5-yl-methanone] | 62.2
6 | C[C@H]1c2nn(C)c(-c3cc(F)c(F)c(F)c3)c2CCN1C(=O)c1cnn(C)c1C1CC1(F)F (single isomer, unassigned) [Example 337, (5-((R*)-2,2-difluorocyclopropyl)-1-methyl-1H-pyrazol-4-yl)((S)-2,7-dimethyl-3-(3,4,5-trifluorophenyl)-2,4,5,7-tetrahydro-6H-pyrazolo[3,4-c]pyridin-6-yl)methanone] | 8.07
7 | C[C@@H]1c2nn(-c3ccccc3)c(-c3ccccc3)c2CCN1C(=O)c1cnn(C)c1C1CC1 [Example 349, (R)-(5-cyclopropyl-1-methyl-1H-pyrazol-4-yl) (7-methyl-2,3-diphenyl-2,4,5,7-tetrahydro-6H-pyrazolo[3,4-c]pyridin-6-yl) methanone] | 1080
8 | Cc1cnc2c(C(=O)N3CCc4c(nn(C)c4-c4cc(F)c(F)c(F)c4)[C@@H]3C)ncn2c1 [Example 461, [(7S)-2,7-Dimethyl-3-(3,4,5-trifluorophenyl)-5,7-dihydro-4H-pyrazolo[3,4-c]pyridin-6-yl]-(3-methylimidazo[1,5-a]pyrimidin-8-yl)methanone] | 1010
9 | C[C@H]1c2nn(C)c(-c3cccc4c3OCO4)c2CCN1C(=O)c1ccc2ncccc2c1 [Example 541, [(7S)-3-(1,3-Benzodioxol-4-yl)-2,7-dimethyl-5,7-dihydro-4H-pyrazolo[3,4-c]pyridin-6-yl]-(6-quinolyl)methanone] | 2.17
10 | C[C@H]1c2nn(C)c(-c3cc(F)c(F)c(F)c3)c2CCN1C(=O)c1ccn2ncc(F)c2c1 [Example 378, [(7S)-2,7-Dimethyl-3-(3,4,5-trifluorophenyl)-5,7-dihydro-4H-pyrazolo[3,4-c]pyridin-6-yl]-(3-fluoropyrazolo[1,5-a]pyridin-5-yl)methanone] | 38.8
11 | C[C@H]1c2nn(C)c(-c3cc(F)c(F)c(F)c3)c2CCN1C(=O)c1ccc2c(c1)OCCC2 [Example 582, Chroman-7-yl-[(7S)-2,7-dimethyl-3-(3,4,5-trifluorophenyl)-5,7-dihydro-4H-pyrazolo[3,4-c]pyridin-6-yl]methanone] | 7.52
12 | C[C@H]1c2nn(C)c(-c3cc(F)c(F)c(F)c3)c2CCN1C(=O)c1cnc2ccncc2c1 [Example 488, [(7S)-2,7-Dimethyl-3-(3,4,5-trifluorophenyl)-5,7-dihydro-4H-pyrazolo[3,4-c]pyridin-6-yl]-(1,6-naphthyridin-3-yl)methanone] | 227
13 | C[C@H]1c2nn(C)c(-c3cc(F)c(F)c(F)c3)c2CCN1C(=O)c1n[nH]c2cccnc12 [Example 436, [(7S)-2,7-Dimethyl-3-(3,4,5-trifluorophenyl)-5,7-dihydro-4H-pyrazolo[3,4-c]pyridin-6-yl]-(1H-pyrazolo[4,3-b]pyridin-3-yl)methanone] | 175
14 | C[C@H]1c2nn(C)c(-c3cc(F)c(F)c(F)c3)c2CCN1C(=O)c1c(C(F)(F)F)nc2ccccn12 [Example 413, [(7S)-2,7-Dimethyl-3-(3,4,5-trifluorophenyl)-5,7-dihydro-4H-pyrazolo[3,4-c]pyridin-6-yl]-[2-(trifluoromethyl)imidazo[1,2-a]pyridin-3-yl]methanone] | 23
15 | C[C@H]1c2nn(C)c(-c3cc(F)c(F)c(F)c3)c2CCN1C(=O)c1ccc2oc(=O)[nH]c2c1 [Example 586, 5-[(7S)-2,7-Dimethyl-3-(3,4,5-trifluorophenyl)-5,7-dihydro-4H-pyrazolo[3,4-c]pyridine-6-carbonyl]-3H-1,3-benzoxazol-2-one] | 1000
16 | C[C@H]1c2nn(C)c(-c3cc(F)c(F)c(F)c3)c2CCN1C(=O)c1cnc2c(c1)COCC2 [Example 567, 7,8-Dihydro-5H-pyrano[4,3-b]pyridin-3-yl-[(7S)-2,7-dimethyl-3-(3,4,5-trifluorophenyl)-5,7-dihydro-4H-pyrazolo[3,4-c]pyridin-6-yl]methanone] | 1050

same assay, conditions: 300 nM [Glycerol-1,3-3H]-oleyl glycerol, one hour incubation

Row | Structure (SMILES) | IC50 [nM]
17 | Cn1nc2c(c1-c1ccccc1)CCN(C(=O)c1cccc(O)c1Cl)C2 [Example 12, (2-Chloro-3-hydroxyphenyl)(2-methyl-3-phenyl-2,4,5,7-tetrahydro-6H-pyrazolo[3,4-c]pyridin-6-yl)methanone] | 3420
18 | Cc1cccc(C(=O)N2CCc3c(nn(C)c3-c3ccccc3)C2)c1N [Example 17, (2-Amino-3-methylphenyl)(2-methyl-3-phenyl-2,4,5,7-tetrahydro-6H-pyrazolo[3,4-c]pyridin-6-yl)methanone] | 1400
19 | C[C@H]1c2nn(C)c(-c3cc(Cl)cc(Cl)c3)c2CCN1C(=O)c1nn(C)c2ncccc12 [Example 173, (S)-(3-(3,5-Dichlorophenyl)-2,7-dimethyl-2,4,5,7-tetrahydro-6H-pyrazolo[3,4-c]pyridin-6-yl)(1-methyl-1H-pyrazolo[3,4-b]pyridin-3-yl)methanone] | 18
20 | Cn1nc2c(c1-c1ccccc1)CCN(C(=O)c1ccc3cn[nH]c3c1)C2 [Example 68, (1H-Indazol-6-yl)(2-methyl-3-phenyl-2,4,5,7-tetrahydro-6H-pyrazolo[3,4-c]pyridin-6-yl)methanone] | 2190
21 | Cn1nc2c(c1-c1ccccc1)CCN(C(=O)c1cccc3ncnn13)C2 [Example 85, [1,2,4]Triazolo[1,5-a]pyridin-5-yl(2-methyl-3-phenyl-2,4,5,7-tetrahydro-6H-pyrazolo[3,4-c]pyridin-6-yl)methanone] | 7140
22 | C[C@H]1c2nn(C)c(-c3cc(F)c(F)c(F)c3)c2CCN1C(=O)c1cn(C)c2ncccc12 [Example 223, (S)-(2,7-Dimethyl-3-(3,4,5-trifluorophenyl)-2,4,5,7-tetrahydro-6H-pyrazolo[3,4-c]pyridin-6-yl)(1-methyl-1H-pyrrolo[2,3-b]pyridin-3-yl)methanone] | 87.6
23 | CC1c2nn(C)c(-c3cc(F)cc(F)c3)c2CCN1C(=O)c1ccc2ncccc2c1 (stereo not drawn) [Example 106, (3-(3,5-Difluorophenyl)-2,7-dimethyl-2,4,5,7-tetrahydro-6H-pyrazolo[3,4-c]pyridin-6-yl)(quinolin-6-yl)methanone] | 7.36
24 | Cn1nc2c(c1-c1ccccc1)CCN(C(=O)c1cccc3cnccc13)C2 [Example 92, Isoquinolin-5-yl(2-methyl-3-phenyl-2,4,5,7-tetrahydro-6H-pyrazolo[3,4-c]pyridin-6-yl)methanone] | 108
25 | Cn1nc2c(c1-c1ccccc1)CCN(C(=O)c1ccc3occc3c1)C2 [Example 35, Benzofuran-5-yl(2-methyl-3-phenyl-2,4,5,7-tetrahydro-6H-pyrazolo[3,4-c]pyridin-6-yl)methanone] | 482
26 | Cn1nc2c(c1-c1ccccc1)CCN(C(=O)c1ccn3cncc3c1)C2 [Example 78, Imidazo[1,5-a]pyridin-7-yl(2-methyl-3-phenyl-2,4,5,7-tetrahydro-6H-pyrazolo[3,4-c]pyridin-6-yl)methanone] | 2000
27 | C[C@@H]1c2nn(C)c(-c3cc(F)cc(F)c3)c2CCN1C(=O)c1cnc2ccoc2c1 [Example 154, (R)-(3-(3,5-Difluorophenyl)-2,7-dimethyl-2,4,5,7-tetrahydro-6H-pyrazolo[3,4-c]pyridin-6-yl)(furo[3,2-b]pyridin-6-yl)methanone] | 6550
28 | Cn1nc2c(c1-c1ccccc1)CCN(C(=O)c1cccc3c1OC(F)(F)O3)C2 [Example 30, (2,2-Difluorobenzo[d][1,3]dioxol-4-yl)(2-methyl-3-phenyl-2,4,5,7-tetrahydro-6H-pyrazolo[3,4-c]pyridin-6-yl)methanone] | 1040
29 | Cn1nc2c(c1-c1ccccc1)CCN(C(=O)c1cccc(OC(F)(F)F)c1F)C2 [Example 4, (2-Fluoro-3-(trifluoromethoxy)phenyl)(2-methyl-3-phenyl-2,4,5,7-tetrahydro-6H-pyrazolo[3,4-c]pyridin-6-yl)methanone] | 433
30 | C[C@H]1c2nn(C)c(-c3cc(F)c(F)c(F)c3)c2CCN1C(=O)c1nccc2ccccc12 [Example 237, (S)-(2,7-Dimethyl-3-(3,4,5-trifluorophenyl)-2,4,5,7-tetrahydro-6H-pyrazolo[3,4-c]pyridin-6-yl)(isoquinolin-1-yl)methanone] | 1.89
